Experimental data published in PubChem BioAssay AID1963977 (Molecular Pharmacology Branch, DTP, NCI, 2024).
Values belong to the compound of their own block, whether it stands above or below them.

Test system: 624824-186-R-J3-PDC multicell spheroids, viability
Assay: Anticancer human tumor 624824-186-R-J3-PDC patient-derived colon adenocarcinoma cell line growth inhibition [PI3K]
Conditions: for IC50: curve of first compound; for viability, T/C: stronger effect = lower value
Summary of the method: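 Targeted small molecules plus PI3K inhibitors, half-log dose series from Cmax (default top 10 microM), were applied to heterotypic spheroids of cancer cells with HUVEC and MSCs. Viability indicated growth inhibition.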

[1] = second compound 0.0316 µM, first compound 0.0316 µM
[2] = second compound 0.0316 µM, first compound 0.1 µM
[3] = second compound 0.0316 µM, first compound 0.316 µM
[4] = second compound 0.0316 µM, first compound 1 µM
[5] = second compound 0.0316 µM, first compound 3.16 µM
[6] = second compound 0.0316 µM, first compound 10 µM
[7] = second compound 0.1 µM, first compound 0.0316 µM
[8] = second compound 0.1 µM, first compound 0.1 µM
[9] = second compound 0.1 µM, first compound 0.316 µM
[10] = second compound 0.1 µM, first compound 1 µM
[11] = second compound 0.1 µM, first compound 3.16 µM
[12] = second compound 0.1 µM, first compound 10 µM
[13] = second compound 0.316 µM, first compound 0.0316 µM
[14] = second compound 0.316 µM, first compound 0.1 µM
[15] = second compound 0.316 µM, first compound 0.316 µM
[16] = second compound 0.316 µM, first compound 1 µM
[17] = second compound 0.316 µM, first compound 3.16 µM
[18] = second compound 0.316 µM, first compound 10 µM
[19] = second compound 1 µM, first compound 0.0316 µM
[20] = second compound 1 µM, first compound 0.1 µM
[21] = second compound 1 µM, first compound 0.316 µM
[22] = second compound 1 µM, first compound 1 µM
[23] = second compound 1 µM, first compound 3.16 µM
[24] = second compound 1 µM, first compound 10 µM
[25] = second compound 3.16 µM, first compound 0.0316 µM
[26] = second compound 3.16 µM, first compound 0.1 µM
[27] = second compound 3.16 µM, first compound 0.316 µM
[28] = second compound 3.16 µM, first compound 1 µM
[29] = second compound 3.16 µM, first compound 3.16 µM
[30] = second compound 3.16 µM, first compound 10 µM
[31] = second compound 10 µM, first compound 0.0316 µM
[32] = second compound 10 µM, first compound 0.1 µM
[33] = second compound 10 µM, first compound 0.316 µM
[34] = second compound 10 µM, first compound 1 µM
[35] = second compound 10 µM, first compound 3.16 µM
[36] = second compound 10 µM, first compound 10 µM
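Also: spheroids exposed to agents for seven days before luminescence read.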
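For viability, T/C in this document: luminescent signal used as a stand-in for spheroid viability; percent viability relative to DMSO vehicle control wells taken as 100%.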

IC50 (second compound 0.0316 µM): > 10 µM
IC50 (second compound 0.1 µM): > 10 µM
IC50 (second compound 0.316 µM): > 10 µM
IC50 (second compound 1 µM): > 10 µM
IC50 (second compound 3.16 µM): > 10 µM
IC50 (second compound 10 µM): > 10 µM
Compound: C#Cc1c(F)ccc2cc(O)cc(-c3ncc4c(N5CC6CCC(C5)N6)nc(OCC56CCCN5CC(F)C6)nc4c3F)c12 (stereo not drawn) + CC(Nc1ncnc2nc[nH]c12)c1cc2cccc(Cl)c2c(=O)n1-c1ccccc1
viability, T/C [1]: 115%
viability, T/C [2]: 93.2%
viability, T/C [3]: 104%
viability, T/C [4]: 101%
viability, T/C [5]: 97%
viability, T/C [6]: 117%
viability, T/C [7]: 106%
viability, T/C [8]: 99.2%
viability, T/C [9]: 117%
viability, T/C [10]: 113%
viability, T/C [11]: 105%
viability, T/C [12]: 115%
viability, T/C [13]: 88.4%
viability, T/C [14]: 103%
viability, T/C [15]: 109%
viability, T/C [16]: 102%
viability, T/C [17]: 114%
viability, T/C [18]: 115%
viability, T/C [19]: 102%
viability, T/C [20]: 110%
viability, T/C [21]: 108%
viability, T/C [22]: 103%
viability, T/C [23]: 111%
viability, T/C [24]: 112%
viability, T/C [25]: 96%
viability, T/C [26]: 105%
viability, T/C [27]: 105%
viability, T/C [28]: 95.3%
viability, T/C [29]: 100%
viability, T/C [30]: 110%
viability, T/C [31]: 96.3%
viability, T/C [32]: 97%
viability, T/C [33]: 94.5%
viability, T/C [34]: 92.8%
viability, T/C [35]: 98.3%
viability, T/C [36]: 85.7%

IC50 (second compound 0.0316 µM): 5.14 µM
IC50 (second compound 0.1 µM): 5.36 µM
IC50 (second compound 0.316 µM): 5.34 µM
IC50 (second compound 1 µM): 5.19 µM
IC50 (second compound 3.16 µM): 5.01 µM
IC50 (second compound 10 µM): 3.65 µM
Compound: CC1(C)CCC(Nc2ncc(C(F)(F)F)c(-c3c[nH]c4c(P(C)(C)=O)c(C#N)ccc34)n2)CN1 (stereo not drawn) + CC(Nc1ncnc2nc[nH]c12)c1cc2cccc(Cl)c2c(=O)n1-c1ccccc1
viability, T/C [1]: 99%
viability, T/C [2]: 85.7%
viability, T/C [3]: 92.2%
viability, T/C [4]: 92.5%
viability, T/C [5]: 83.8%
viability, T/C [6]: 3.64%
viability, T/C [7]: 115%
viability, T/C [8]: 89%
viability, T/C [9]: 89.2%
viability, T/C [10]: 99%
viability, T/C [11]: 89%
viability, T/C [12]: 3.93%
viability, T/C [13]: 99.2%
viability, T/C [14]: 92.4%
viability, T/C [15]: 82.2%
viability, T/C [16]: 85.1%
viability, T/C [17]: 88.1%
viability, T/C [18]: 4.29%
viability, T/C [19]: 90.8%
viability, T/C [20]: 86.2%
viability, T/C [21]: 87.3%
viability, T/C [22]: 95.5%
viability, T/C [23]: 84.8%
viability, T/C [24]: 3.92%
viability, T/C [25]: 79.5%
viability, T/C [26]: 82.5%
viability, T/C [27]: 78%
viability, T/C [28]: 80.9%
viability, T/C [29]: 82.3%
viability, T/C [30]: 4.17%
viability, T/C [31]: 66.5%
viability, T/C [32]: 63.2%
viability, T/C [33]: 63.2%
viability, T/C [34]: 60.9%
viability, T/C [35]: 57%
viability, T/C [36]: 3.67%

IC50 (second compound 0.00316 µM): > 10 µM
IC50 (second compound 0.01 µM): > 10 µM
IC50 (second compound 0.0316 µM): > 10 µM
IC50 (second compound 0.1 µM): > 10 µM
IC50 (second compound 0.316 µM): < 0.0316 µM
IC50 (second compound 1 µM): < 0.0316 µM
Compound: CNC(=O)c1ccc(N2C(=S)N(c3ccc(C#N)c(C(F)(F)F)c3)C(=O)C2(C)C)cc1F + COc1c(OCCCN2CCOCC2)ccc2c3n(c(=NC(=O)c4cnc(N)nc4)nc12)CCN3
viability, T/C (second compound 0.00316 µM, first compound 0.0316 µM): 116%
viability, T/C (second compound 0.00316 µM, first compound 0.1 µM): 92.3%
viability, T/C (second compound 0.00316 µM, first compound 0.316 µM): 114%
viability, T/C (second compound 0.00316 µM, first compound 1 µM): 103%
viability, T/C (second compound 0.00316 µM, first compound 3.16 µM): 105%
viability, T/C (second compound 0.00316 µM, first compound 10 µM): 107%
viability, T/C (second compound 0.01 µM, first compound 0.0316 µM): 102%
viability, T/C (second compound 0.01 µM, first compound 0.1 µM): 94.5%
viability, T/C (second compound 0.01 µM, first compound 0.316 µM): 101%
viability, T/C (second compound 0.01 µM, first compound 1 µM): 94%
viability, T/C (second compound 0.01 µM, first compound 3.16 µM): 104%
viability, T/C (second compound 0.01 µM, first compound 10 µM): 98%
viability, T/C [1]: 91.1%
viability, T/C [2]: 102%
viability, T/C [3]: 91.2%
viability, T/C [4]: 93.2%
viability, T/C [5]: 88.9%
viability, T/C [6]: 88.8%
viability, T/C [7]: 78%
viability, T/C [8]: 74.5%
viability, T/C [9]: 89.4%
viability, T/C [10]: 71.8%
viability, T/C [11]: 73%
viability, T/C [12]: 72.5%
viability, T/C [13]: 49.2%
viability, T/C [14]: 50.8%
viability, T/C [15]: 47.5%
viability, T/C [16]: 48.5%
viability, T/C [17]: 47.6%
viability, T/C [18]: 34.1%
viability, T/C [19]: 26.7%
viability, T/C [20]: 31%
viability, T/C [21]: 26.7%
viability, T/C [22]: 27.5%
viability, T/C [23]: 26.2%
viability, T/C [24]: 23.9%

IC50 (second compound 0.00316 µM): 0.854 µM
IC50 (second compound 0.01 µM): 0.582 µM
IC50 (second compound 0.0316 µM): 0.189 µM
IC50 (second compound 0.1 µM): 0.0474 µM
IC50 (second compound 0.316 µM): < 0.00949 µM
IC50 (second compound 1 µM): < 0.00949 µM
Compound: Cn1cnc2c(F)c(Nc3ccc(Br)cc3Cl)c(C(=O)NOCCO)cc21 + COc1c(OCCCN2CCOCC2)ccc2c3n(c(=NC(=O)c4cnc(N)nc4)nc12)CCN3
viability, T/C (second compound 0.00316 µM, first compound 0.00949 µM): 102%
viability, T/C (second compound 0.00316 µM, first compound 0.03 µM): 95.9%
viability, T/C (second compound 0.00316 µM, first compound 0.0949 µM): 102%
viability, T/C (second compound 0.00316 µM, first compound 0.3 µM): 87.8%
viability, T/C (second compound 0.00316 µM, first compound 0.949 µM): 46.3%
viability, T/C (second compound 0.00316 µM, first compound 3 µM): 31.4%
viability, T/C (second compound 0.01 µM, first compound 0.00949 µM): 108%
viability, T/C (second compound 0.01 µM, first compound 0.03 µM): 88.4%
viability, T/C (second compound 0.01 µM, first compound 0.0949 µM): 86.4%
viability, T/C (second compound 0.01 µM, first compound 0.3 µM): 65.5%
viability, T/C (second compound 0.01 µM, first compound 0.949 µM): 37.1%
viability, T/C (second compound 0.01 µM, first compound 3 µM): 18.4%
viability, T/C (second compound 0.0316 µM, first compound 0.00949 µM): 88.9%
viability, T/C (second compound 0.0316 µM, first compound 0.03 µM): 89.6%
viability, T/C (second compound 0.0316 µM, first compound 0.0949 µM): 67.4%
viability, T/C (second compound 0.0316 µM, first compound 0.3 µM): 37.7%
viability, T/C (second compound 0.0316 µM, first compound 0.949 µM): 18.2%
viability, T/C (second compound 0.0316 µM, first compound 3 µM): 11.2%
viability, T/C (second compound 0.1 µM, first compound 0.00949 µM): 75.2%
viability, T/C (second compound 0.1 µM, first compound 0.03 µM): 57.9%
viability, T/C (second compound 0.1 µM, first compound 0.0949 µM): 38.5%
viability, T/C (second compound 0.1 µM, first compound 0.3 µM): 21%
viability, T/C (second compound 0.1 µM, first compound 0.949 µM): 13.5%
viability, T/C (second compound 0.1 µM, first compound 3 µM): 5.3%
viability, T/C (second compound 0.316 µM, first compound 0.00949 µM): 43.3%
viability, T/C (second compound 0.316 µM, first compound 0.03 µM): 28.9%
viability, T/C (second compound 0.316 µM, first compound 0.0949 µM): 17.9%
viability, T/C (second compound 0.316 µM, first compound 0.3 µM): 9.77%
viability, T/C (second compound 0.316 µM, first compound 0.949 µM): 4.7%
viability, T/C (second compound 0.316 µM, first compound 3 µM): 1.14%
viability, T/C (second compound 1 µM, first compound 0.00949 µM): 22.7%
viability, T/C (second compound 1 µM, first compound 0.03 µM): 16%
viability, T/C (second compound 1 µM, first compound 0.0949 µM): 10.1%
viability, T/C (second compound 1 µM, first compound 0.3 µM): 8.08%
viability, T/C (second compound 1 µM, first compound 0.949 µM): 3.21%
viability, T/C (second compound 1 µM, first compound 3 µM): 1.3%
